Reference: PMC11225074 (Clinical and Translational Medicine, 2024)

What was measured:
His‐YBX1 = assay: Microscale thermophoresis (MST), His-YBX1 wild type; format: binding; settings: PBS (pH 7.4) with 0.05% Tween‐20, peptide 10 nM to 500 µM, NT-647-NHS labelled protein; at least three experiments
Description: The recombinant plasmids pGEX and pET‐28a expressing GST‐YBX1 and His‐YBX1, respectively, were transformed into E. coli BL21 to generate two recombinant strains pGEX‐GST‐YBX1 and pET‐28a‐His‐YBX1. These strains were inoculated into LB medium and cultured with ampicillin or kanamycin, and isopropylthio‐β‐D‐galactoside at 16°C overnight. Post‐culturing, the cells were collected and sonicated in PBS.
Proteins with labels were dissolved in a solution of PBS (pH 7.4) with 0.05% Tween‐20. […] After incubation, the mixture was moved to silica capillaries and thermophoresis was assessed using a NanoTemper Monolith NT.115 device from NanoTemper Technologies GmbH. Dissociation constant (Kd) values were determined using the law of mass action formula in NanoTemper Analysis 1.5.41 software. All microscale thermophoresis (MST) experiments were conducted at least three times.

[1] = system: Histone H3K4me1 and H3K4me3 peptides; assay: Dot blot of antibody specificity; format: binding; settings: 1:1000, 16 h at 4°C, nitrocellulose, chemiluminescence
From the text: Next, the membranes were washed with 1×TBST in order to eliminate any antibodies that were not bound. Following washing, the membranes were exposed to secondary antibodies that were linked to HRP.

| Binding of His-YBX1 to peptide (MST) (His‐YBX1) | Substance | Antibody specificity towards the corresponding modification [1] |
| --- | --- | --- |
| no discernible binding affinity | ART‐Kme0/1/3‐QTARKSTGGKAPRKQL [H3, chemically synthesized unmethylated histone H3 peptide of 20 amino acids (GenScript)] | – |
| – | H3K4me1 antibody: anti‐H3K4me1 (1:1000; Abcam; ab176877) | high specificity |
| – | H3K4me3 antibody: anti‐H3K4me3 (1:1000; Abcam; ab213224) | high specificity |
